Experiments:
[1] = Dynamic Vapour Sorption (DVS) measurements; type: physicochemical
Description: Dynamic Vapour Sorption (DVS) measurements were made for the compound of Example 12 by exposing a solid sample to controlled relative humidity (% RH) and weight change recorded with time on an automated water sorption analyser.

[2] = Preliminary analysis of hygroscopicity / hydration state; type: physicochemical; conditions: solid compound

SMILES	weight lost on drying (sorption/desorption isotherm) ([1]; DVS, loss due to residual solvent or surface moisture) [%]	hygroscopicity ([1]; solid sample exposed to controlled relative humidity)	hygroscopicity (preliminary analysis) [2]
CCCCOc1ncc(C(C)=O)cc1-c1nc2c(CC)n(C3CN(CC)C3)nc2c(=O)[nH]1.O=S(=O)(O)c1ccccc1 [Example 12, 5-(5-Acetyl-2-butoxy-3-pyridinyl)-3-ethyl-2-(1-ethyl-3-azetidinyl)-2,6dihydro-7H-pyrazolo[4,3-d]pyrimidin-7-one benzenesulfonate]	0.9	non-hygroscopic	–
CCCCOc1ncc(C(C)=O)cc1-c1nc2c(CC)n(C3CN(CC)C3)nc2c(=O)[nH]1 [compound 1A, 5-(5-Acetyl-2-butoxy-3-pyridinyl)-3-ethyl-2-(1-ethyl-3-azetidinyl)-2,6-dihydro-7H-pyrazolo[4,3-d]pyrimidin-7-one]	–	–	anhydrous and non-hygroscopic
